Read-outs that look alike come from different tables or passages of the source.
Key:
[1] = tested on: human colon cancer cell line HT-29; test: MTT cytotoxicity (growth inhibition) assay, HT-29; format: cell-based
Method: (§1) • Cell culture. Cell culture media were purchased from Gibco (Grand Island, NY, USA). Fetal bovine serum (FBS) was a product of Harlan-Seralab (Belton, UK). Supplements and other chemicals not listed in this section were obtained from Sigma Chemical Co. (St. Louis, MO, USA). Plastics for cell culture were supplied by Thermo Scientific BioLite. All tested compounds were dissolved in DMSO at a concentration of 20 mM and stored at –20 °C until use. HT-29, A-549, and HEK-293 cell lines were maintained in a Dulbecco’s modified Eagle’s medium (DMEM) containing glucose (1 g/L), glutamine (2 mM), penicillin (50 μg/mL), streptomycin (50 μg/mL), and amphotericin B (1.25 μg/mL), supplemented with 10% FBS. • Cytotoxicity assays. 5 × 10^3 cells per well were incubated in 96-well plates with serial dilutions of the tested compounds in a total volume of 100 μL of their growth media. 3-(4,5-dimethylthiazol-2-yl)-2,5-diphenyltetrazolium bromide (MTT; Sigma Chemical Co.) dye reduction assay in 96-well microplates was used. Then, 10 μL of MTT (5 mg/mL in phosphate-buffered saline, PBS) was added to each well after 2 days of incubation (37 °C, 5% CO2 in a humid atmosphere). The plate was incubated for a further 3 h (37 °C). After that, the supernatant was discarded and 100 μL of DMSO were added in order to dissolve formazan crystals. The absorbance was read at 550 nm by spectro-photometry. For all concentrations of compound, cell viability was expressed as the percentage of the ratio between the mean absorbance of treated cells and the mean absorbance of untreated cells. Three independent experiments were performed, and the IC50 values (i.e., concentration half inhibiting cell proliferation) were graphically determined using GraphPad Prism 9 software.

[2] = tested on: human lung cancer cell line A-549; test: MTT cytotoxicity (growth inhibition) assay, A-549; format: cell-based
Method: as §1

[3] = MTT cytotoxicity (growth inhibition) assay, HEK-293 (non-tumor); format: cell-based; conditions: human, HEK-293 embryonic kidney cells (non-tumor)
Method: as §1

[4] = tested on: K562 leukemia cancer cell line; set-up: method as in PMID 18396050; conditions: ref [15], cited from earlier work
[5] = tested on: human embryonic kidney cell line HEK-293; set-up: method as in PMID 32033084; conditions: reference compound; ref [30]; read-out: Cytotoxicity IC50 HEK-293; cited from earlier work
[6] = tested on: human colon cancer cell line HT-29; set-up: method as in PMID 32033084; conditions: reference compound; ref [30]; read-out: Cytotoxicity IC50 HT-29; cited from earlier work
[7] = tested on: human lung cancer cell line A-549; set-up: method as in PMID 32033084; conditions: reference compound; ref [30]; read-out: Cytotoxicity IC50 A-549; cited from earlier work
[8] = tested on: HT-29; set-up: method as in PMID 18396050, PMID 18681482, PMID 22137934, PMID 22304851, PMID 24222525; conditions: known triazole analogues of CA-4; ref [15],[16],[17],[18],[19],[20]; read-out: IC50 HT-29 (Figure 2); cited from earlier work
[9] = HT-29, 48 h, read-out: Cytotoxicity IC50 HT-29
[10] = A549, 48 h, read-out: Cytotoxicity IC50 A-549
[11] = known triazole analogues of CA-4, read-out: IC50 K562 (Figure 2)

| SMILES | IC50 [1, 9] [µM] | IC50 [2, 10] [µM] | IC50 at 48 h [3] [µM] | other results |
| --- | --- | --- | --- | --- |
| COc1cc(-n2nncc2-c2ccc(O)c(Br)c2)cc(OC)c1OC [3p, 2-bromo-4-(1-(3,4,5-trimethoxyphenyl)-1H-1,2,3-triazol-5-yl)phenol] | > 200 | > 200 | > 200 |  |
| COc1ccc(-c2cnnn2-c2cc(OC)c(OC)c(OC)c2)cc1N [R^1 = H, R^2 = NH2] |  |  |  | IC50 [4, 11]: 0.011 µM |
| COc1cc(-n2nncc2-c2ccc(O)c(O)c2)cc(OC)c1OC [3q, 4-(1-(3,4,5-trimethoxyphenyl)-1H-1,2,3-triazol-5-yl)benzene-1,2-diol] | > 200 | > 200 | > 200 |  |
| COc1ccc(/C=C\c2cc(OC)c(OC)c(OC)c2)cc1O [CA-4, combretastatin A-4] |  |  |  | IC50 [5]: 25 ± 3 µM; IC50 [6]: 4.2 ± 0.5 µM; IC50 [7]: 0.428 ± 0.004 µM |
| COc1cc(-n2nncc2-c2ccc(F)cc2)cc(OC)c1OC [3f, 5-(4-fluorophenyl)-1-(3,4,5-trimethoxyphenyl)-1H-1,2,3-triazole] | > 200 | > 200 | > 200 |  |
| COc1cc(-n2nncc2-c2ccc(C(F)(F)F)cc2)cc(OC)c1OC [3e, 5-(4-(trifluoromethyl)phenyl)-1-(3,4,5-trimethoxyphenyl)-1H-1,2,3-triazole] | 54 ± 3 | > 100 | > 200 |  |
| COc1ccc(-c2cnnn2-c2cc(OC)c(OC)c(OC)c2)c(N)c1N [R^1 = R^2 = NH2] |  |  |  | IC50 [8]: 17.2 µM |
| COc1cc(-n2nncc2-c2ccccc2[N+](=O)[O-])cc(OC)c1OC [3c, 5-(2-nitrophenyl)-1-(3,4,5-trimethoxyphenyl)-1H-1,2,3-triazole] | > 100 | > 200 | > 200 |  |
| COc1ccc(-c2cnnn2-c2cc(OC)c(OC)c(OC)c2)cc1OC [3o, 5-(3,4-dimethoxyphenyl)-1-(3,4,5-trimethoxyphenyl)-1H-1,2,3-triazoletriazole] | > 100 | > 200 | > 200 |  |
| COc1ccc(Br)c(-c2cnnn2-c2cc(OC)c(OC)c(OC)c2)c1 [3l, 5-(2-bromo-5-methoxyphenyl)-1-(3,4,5-trimethoxyphenyl)-1H-1,2,3-triazole] | > 100 | > 200 | > 200 |  |
| COc1cc(-n2nncc2-c2ccc(Cl)cc2)cc(OC)c1OC [3g, 5-(4-chlorophenyl)-1-(3,4,5-trimethoxyphenyl)-1H-1,2,3-triazole] | > 100 | > 100 | > 200 |  |
| COc1ccc(-c2cnnn2-c2cc(OC)c(OC)c(OC)c2)cc1 [3i, 5-(4-methoxyphenyl)-1-(3,4,5-trimethoxyphenyl)-1H-1,2,3-triazole] | 0.02 ± 0.009 | 0.022 ± 0.007 | 35 ± 9 | IC50 ([4]; previously described, read-out: IC50 K562 leukemia cancer cell line): 0.027 µM |
| COc1cc(-n2nncc2-c2ccc(Br)cc2)cc(OC)c1OC [3h, 5-(4-bromophenyl)-1-(3,4,5-trimethoxyphenyl)-1H-1,2,3-triazole] | > 100 | > 100 | > 200 |  |
| COc1ccc(-c2cnnn2-c2cc(OC)c(OC)c(OC)c2)c(Br)c1 [3k, 5-(2-bromo-4-methoxyphenyl)-1-(3,4,5-trimethoxyphenyl)-1H-1,2,3-triazole] | 56 ± 4 | 33 ± 2 | > 100 |  |
| COc1cc(-n2nncc2-c2ccccc2)cc(OC)c1OC [3a, 5-phenyl-1-(3,4,5-trimethoxyphenyl)-1H-1,2,3-triazole] | > 100 | > 200 | > 200 |  |
| COc1cc(-n2nncc2-c2ccc(OC)c([N+](=O)[O-])c2[N+](=O)[O-])cc(OC)c1OC [R^1 = R^2 = NO2] |  |  |  | IC50 [8]: 12 µM |
| COc1cc(-n2nncc2-c2ccccc2Br)cc(OC)c1OC [3b, 5-(2-bromophenyl)-1-(3,4,5-trimethoxyphenyl)-1H-1,2,3-triazole] | > 100 | > 100 | > 200 |  |
| COc1ccc(-c2cnnn2-c2cc(OC)c(OC)c(OC)c2)c(F)c1F [R^1 = R^2 = F] |  |  |  | IC50 [8]: 1.9 µM |
| CCOc1ccc(-c2cnnn2-c2cc(OC)c(OC)c(OC)c2)cc1 [3j, 5-(4-ethoxyphenyl)-1-(3,4,5-trimethoxyphenyl)-1H-1,2,3-triazole] | 0.0021 ± 0.0009 | 5.8 ± 0.8 | 19 ± 4 | IC50 ([1]; HT-29, 48 h incubation, rounded value, read-out: IC50 HT-29): 0.002 µM |
| COc1ccc(-c2cnnn2-c2cc(OC)c(OC)c(OC)c2)cc1[N+](=O)[O-] [R^1 = H, R^2 = NO2] |  |  |  | IC50 [4, 11]: 0.46 µM |
| COc1cc(-n2nncc2-c2ccc(C)cc2)cc(OC)c1OC [3d, 5-(p-tolyl)-1-(3,4,5-trimethoxyphenyl)-1H-1,2,3-triazole] | > 100 | > 200 | > 200 |  |
| COc1ccc(-c2cnnn2-c2cc(OC)c(OC)c(OC)c2)cc1Br [R^1 = H, R^2 = Br] |  |  |  | IC50 [4, 11]: 0.057 µM |
| CCOc1ccc(-c2cnnn2-c2cc(OC)c(OC)c(OC)c2)cc1Br [3m, 5-(3-bromo-4-ethoxyphenyl)-1-(3,4,5-trimethoxyphenyl)-1H-1,2,3-triazole] | 20 ± 5 | 59 ± 1 | > 200 |  |
| COc1ccc(-c2cnnn2-c2cc(OC)c(OC)c(OC)c2)cc1Cl [3n, 5-(3-chloro-4-methoxyphenyl)-1-(3,4,5-trimethoxyphenyl)-1H-1,2,3-triazole] | 0.021 ± 0.006 | 0.0032 ± 0.0009 | 0.025 ± 0.008 | IC50 ([2]; A549, 48 h incubation, rounded value, read-out: IC50 A-549): 0.003 µM |

From publication PMC11767582, “Synthesis and Biological Evaluation of New cis-Restricted Triazole Analogues of Combretastatin A-4” (Molecules, 2025)
